Converted amounts (≈) assume the structure as drawn.

The nature of series [1]: Chemical hydrolysis stability in PBS pH 7.4. In kind it is physicochemical. The conditions noted are these: PBS pH 7.4, 37 °C, 100 μM. On the procedure:
Chemical hydrolysis stability of each prodrug was assessed in a physiological pH 7.4 using phosphate buffered saline solution (PBS) as previously described. After preincubation of PBS solution at 37 °C for 5 min, stock solution of each prodrug (10 mM) was spiked to a final concentration of 100 μM. The samples were then incubated at 37 °C on a temperature-controlled orbital shaker operating at 200 rpm. At predetermined time points, 200 μL of incubation mixture was withdrawn and quenched with 100 μL of internal standard (0.5 μg/mL of fenofibric acid) and 700 μL ice cold ACN. Drug concentration was analyzed using HPLC-UV method as described earlier to assess the amount of prodrug recovered compared to the starting timepoint.

Series [2] in a line: BCS classification from solubility and PAMPA permeability. As to conditions: predicted from low solubility and low permeability.
Another series can be described thus: Aqueous solubility. As to conditions: thermodynamic from solid; deionized water, 25 °C, 48 h equilibrium. In kind it is physicochemical. On the procedure: Aqueous solubility of each prodrug was assessed using deionized water. In brief, an excess amount of each prodrug was placed in a stoppered vial containing 1 mL of water. Each sample was vortexed and kept in an isothermal shaker maintained at 25 ± 1.0 °C to reach equilibrium for 48 h. The resulting mixture was centrifuged at 4000× g for 15 min, and the supernatant was collected and diluted with ACN followed by filtration with a 0.22 μm filter. The drug concentrations for all prodrugs were measured using HPLC-UV. Chromatographic separation was achieved using an Agilent Pursuit XRs 5 C18 column (250 × 4.6 mm) with a UV-detector system. The mobile phase consisted of ACN and water, both containing 0.1% trifluoroacetic acid in a ratio of 80:20 v/v, with a flow rate of 1 mL/min at 25 °C.

`Cc1cc(CNc2cccc(C(=O)OCc3oc(=O)oc3C)c2)ccc1OCc1ccc(F)cc1` [A190-PD-60, (5-Methyl-2-oxo-1,3-dioxol-4-yl)methyl3-((4-((4-Fluorobenzyl)oxy)-3-methylbenzyl)amino)benzoate]: the “drug remaining at 2 h” value in series [1] is listed as “over 80%”. The BCS class result in series [2] is “BCS Class IV”. Also, the concentration in solution in the series “Aqueous solubility” (solubility at 48 h) was 1.4 ± 0.23 µg/mL (≈ 2.93 µM).

The values above are taken from article PMC12383972, “Oral Pharmacokinetic Evaluation of a Microemulsion-Based Delivery System for Novel A190 Prodrugs” (Biomolecules, 2025).
